According to PubChem BioAssay (NCI):
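Grown in 96-well plates, cells were treated for 48 hours with each compound at five concentrations. Insufficient inhibition: endpoint recorded as highest concentration tested. Definition used: TGI = concentration required for complete inhibition of growth.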

What was measured:
Test in all cases: NCI tumour cell line growth inhibition, 48 h
M19-MEL melanoma = system: M19-MEL melanoma
RXF-631 renal = system: RXF-631 renal
DLD-1 colon = system: DLD-1 colon
DMS 273 small cell lung = system: DMS 273 small cell lung
HOP-18 NSCLC = system: HOP-18 NSCLC
XF 498 CNS = system: XF 498 CNS
P388 leukemia = system: P388 leukemia
SN12K1 renal = system: SN12K1 renal

Row | SMILES | TGI (M19-MEL melanoma) | TGI (RXF-631 renal) | TGI (DLD-1 colon) | TGI (DMS 273 small cell lung) | TGI (HOP-18 NSCLC) | TGI (XF 498 CNS) | TGI (P388 leukemia) | TGI (SN12K1 renal)
1 | C/C(=N\Nc1ccccc1)C(CN(C)C)C(c1ccccc1)c1c(O)c2ccccc2oc1=O (stereo not drawn) | > 100 µM | > 100 µM |  |  |  |  |  | 
2 | CC1(C)COC(c2c(-c3ccccc3)noc2CS(=O)c2ccccc2)=N1 (stereo not drawn) | > 100 µM |  | > 100 µM | > 100 µM | 86.4 µM |  |  | 
3 | CC(=O)Nc1ccc(C(=O)N2N=C(C)/C(=C/c3ccc(O)cc3)C2=O)cc1 | > 100 µM |  | > 100 µM | > 100 µM |  | > 100 µM |  | 
4 | OC12CCCCCC1(N1CCOCC1)c1ccccc12 (stereo not drawn) | > 100 µM |  |  | > 100 µM | > 100 µM |  |  | 
5 | COC(=O)CC(NC(=O)OCc1ccccc1)C(C(=O)OCc1ccccc1)C1(C)OCCO1 (stereo not drawn) | > 100 µM | > 100 µM | > 100 µM | > 100 µM |  | 42.3 µM |  | 
6 | CCOc1ccc(-c2oc(/C=N/NS(=O)(=O)c3ccc(C)cc3)c([N+](=O)[O-])c2-c2ccc(OCC)cc2)cc1 | 13.3 µM |  | 17.6 µM | 23 µM |  |  |  | 
7 | Cc1cc(=O)[nH]c(NNC(C#N)c2ccc([N+](=O)[O-])cc2)n1 (stereo not drawn) | > 100 µM |  | > 100 µM | > 100 µM | > 100 µM |  |  | 
8 | CCOC1=C2NC(Cc3ccc(F)cc3)=NC2C(=O)c2ccccc21 (stereo not drawn) | 39.5 µM | > 100 µM | > 100 µM | 81.3 µM |  |  |  | 
9 | Nc1c(N=Nc2ccc(-c3ccc(N=Nc4c(O)ccc5cc(S(=O)(=O)O)cc(S(=O)(=O)O)c45)cc3)cc2)c(S(=O)(=O)O)cc2cc(S(=O)(=O)O)c(N=Nc3ccccc3)c(O)c12 | > 100 µM |  | > 100 µM | > 100 µM | > 100 µM | > 100 µM | > 100 µM | > 100 µM
10 | Cc1cc2occ(-c3ccc(Cl)cc3)c2c(=O)o1 |  | > 100 µM | > 100 µM | > 100 µM | > 100 µM |  |  | 
11 | CC(=O)NC1=C(NCC(C)C)C(=O)c2ccccc2C1=O | 34.2 µM |  | 40.1 µM | 30.7 µM | 29.5 µM | 27 µM |  | 
12 | O=S1(=O)CCN(c2ccccc2CC(c2c[nH]c3ccccc23)c2c[nH]c3ccccc23)CC1 | 23 µM |  | 21.4 µM | 37.5 µM | 32.7 µM |  |  | 
13 | Cc1cc2n([O-])cccc-2[n+](=O)c1 | > 100 µM |  | > 100 µM | > 100 µM |  | > 100 µM |  | 
14 | CC(C)(C)CC(C)(C)c1ccc(OCCOCC[N+](C)(C)Cc2ccccc2)cc1 |  | 34.2 µM | 20.3 µM | 2.57 µM | 7.32 µM |  |  | 
15 | C/C(=C\Cc1cc(O)ccc1O)CCc1c(C)cc(O)c(C=O)c1C |  |  | 55.1 µM | 55.4 µM | 53.4 µM | 45.2 µM |  | 
16 | O=C(OCc1ccccc1C1CSCSC1)c1cc(C(=O)OCc2ccccc2C2CSCSC2)c(C(=O)OCc2ccccc2C2CSCSC2)cc1C(=O)OCc1ccccc1C1CSCSC1 | > 100 µM |  | > 100 µM | > 100 µM | > 100 µM |  |  | 
17 | COc1ccc(-c2c3ccccc3c(-c3ccc(OCCCCCBr)cc3)c3ccccc23)cc1 | > 100 µM |  | > 100 µM | > 100 µM |  |  |  | 
